Our source for the EC50 values is patent US8703120B2, “Use of oncolytic herpes viruses for killing cancer stem cells” (The General Hospital Corporation, priority 2008, dated 2014).

In general, EC50 refers to the concentration giving half of the maximal effect.

What all share (type): cell-based
One test relates to U373. As to the kind of experiment: MTT cell viability assay with Chou-Talalay analysis. The following applies: Homo sapiens, U373 MG, 96 h, MTT 4 days later. As for the experimental part: (§1) FIG. 9A depicts that temozolomide (TMZ) synergizes with oncolytic Herpes vector G47Δ in MGMT-negative glioma cell lines U87 and U373. U87 or U373 cells were seeded to 96-well plates at 3000 cells per well. The next day, 1:3 serial dilution series of Temozolomide (TMZ) (EC50 200 μM), and G47Δ (EC50 MOI=0.06) were prepared. TMZ was applied first followed by G47Δ 12 hours later. MTT assay was performed to measure cell viability 4 days later.
A general note: Formazan colour is commonly taken as a measure of viable cells.

The test system of a further test is U87. The description is as above. The following applies: Homo sapiens, U-87 MG, 96 h, MTT 4 days later. Here is the method:
as §1

The subject of the next test is BT74 glioma stem cells. As to the kind of experiment: MTS cell viability assay with Chou-Talalay analysis. The conditions noted are these: Homo sapiens, 96 h, MTS 4 days later. Here is the method:
BT74 glioma stem cells were seeded to 96-well plates at 5000 cells per well. […] TMZ was applied first, with or without O6-Benzylguanine (O6-BG:80 μM), followed by G47Δ 12 hours later. MTS assay was performed to measure cell viability 4 days later.
(§2) TMZ was applied first, with or without O6-Benzylguanine (O6-BG:40 or 80 μM), followed by G47Δ 12 hours later. MTS assay was performed to measure cell viability 4 days later.

The subject of another test is GBM13 glioma stem cells. The test is described as above. The following applies: Homo sapiens, 96 h, MTS 4 days later. As for the experimental part: as §2
A further test relates to GBM4 glioma stem cells. The test is described as follows: MTS cell viability / cell killing assay with Chou-Talalay analysis. The conditions noted are these: Homo sapiens, 96 h, MTS 4 days later. As for the experimental part: (§3) FIG. 10A depicts TMZ synergy with G47delta in MGMT-negative glioma stem cells (GBM4 and GBM8). GBM4 or GBM8 glioma stem cells were seeded to 96-well plates at 5000 cells per well. […] TMZ was applied first followed by G47Δ 12 hours later. MTS assay was performed to measure cell viability 4 days later.

In another test the test system is GBM8 glioma stem cells. The description is as above. The following applies: Homo sapiens, 96 h, MTS 4 days later. As for the experimental part: as §3

`Cn1nnc2c(C(N)=O)ncn2c1=O` [TMZ, temozolomide]: the EC50 in the test with U373 was determined as 200 µM; in the test with U87, 200 µM; with BT74 glioma stem cells it was 1500 µM; in the test with GBM13 glioma stem cells, 1500 µM; in the test with GBM4 glioma stem cells it was 20 µM; with GBM8 glioma stem cells it was 3 µM.
